Measured values taken from patent publication US20220401436A1, “METHODS FOR THE TREATMENT OF CANCERS THAT HAVE ACQUIRED RESISTANCE TO KINASE INHIBITORS” (INSERM (INSTITUTE NATIONAL DE LA SANTÉ ET DE LA RECHERCHE …, priority 2019, published 2022).

Legend:
[1] = test system: EGFR-mutated lung cell lines; assay: Drug-tolerant cell (DTC) state in a panel of EGFR-mutated lung cell lines; format: cell-based
Excerpt: Actin polymerization is a tightly regulated process orchestrated by GTPases. Given our knowledge on the role of RHOB in resistance to targeted therapy, we assessed whether this GTPase could be responsible for the production of stress fibers in response to EGFR-TKI.

TKI-sensitive models = assay: Relapse in several TKI-sensitive models followed by fluorescence detection (FIG. 1); format: cell-based; settings: in combination with TKI; FIG. 1 title
Description: (§1) FIG. 1. […] (G-H). GFP-transduced H3122 (ALK-translocated NSCLC cell line) or A375 (BRAF-mutated melanoma cell line) were treated by Tipifarnib 0.1 μM in combination with Alectinib (2 μM) or Vemurafenib (5 μM), respectively, and response as well as relapse was followed by fluorescence detection.

PC9 = assay: GFP-transduced PC9 cells treated in vitro, response and relapse followed by fluorescence detection; format: cell-based; settings: for emergence of resistant proliferative clones: inhibitor at 1 μM
[2] = test system: H3122 (ALK-translocated NSCLC cell line); assay: GFP-transduced H3122 cells treated in vitro, response and relapse followed by fluorescence detection; format: cell-based
Description: as §1

HCC4006 = assay: GFP-transduced HCC4006 cells treated in vitro, response and relapse followed by fluorescence detection; format: cell-based; settings: for emergence of resistant proliferative clones: inhibitor at 1 μM
HCC827 = assay: GFP-transduced HCC827 cells treated in vitro, response and relapse followed by fluorescence detection; format: cell-based; settings: for emergence of resistant proliferative clones: inhibitor at 1 μM
[3] = combination of Erlotinib and Tipifarnib; phase I clinical trial; cited from earlier work
[4] = test system: A375 (BRAF-mutated melanoma cell line); assay: GFP-transduced A375 cells treated in vitro, response and relapse followed by fluorescence detection; format: cell-based
Description: as §1

HCC2935 = format: cell-based
H3255 = format: cell-based
[5] = Tipifarnib alone at 0.1 μM, data not shown
[6] = combination with erlotinib 1 μM, Tipifarnib at 0.1 μM
[7] = combination with erlotinib 1 μM, Tipifarnib at 1 μM
[8] = combination with erlotinib 1 μM
[9] = Tipifarnib alone at 1 μM vs 0.1 μM, data not shown
[10] = erlotinib alone, data not shown

For `C=CC(=O)Nc1cc(Nc2nccc(-c3cn(C)c4ccccc34)n2)c(OC)cc1N(C)CCN(C)C` [osimertinib], the “generation of DTC” value [1] was “able to generate DTC”.

For `Cn1cncc1[C@@](N)(c1ccc(Cl)cc1)c1ccc2c(c1)c(-c1cccc(Cl)c1)cc(=O)n2C` [Tipifarnib, (R)-6-[amino(4-chlorophenyl)(1-methyl-1H-imidazol-5-yl)methyl]-4-(3-chlorophenyl)-1-methyl-2(1H)-quinolinone], the relapse (TKI-sensitive models) was “prevent relapse”, the “effect on cells growth” value (PC9; [5]) was “little-to-non effect” and the “elimination of drug tolerant cells” value (PC9; [6]) was “efficiently eliminated all drug tolerant cells”. For the same molecule, the “emergence of resistant clones” value (PC9; [6]) was “fully prevented the emergence of resistant clones”, the “elimination of drug tolerant cells” value (PC9; [7]) was “efficiently eliminated all drug tolerant cells” and the “emergence of resistant proliferative clones” value (PC9; [8]) was “fully prevented the emergence of resistant clones”. For the same molecule, the “cell death / remaining DTC after several days of treatment” value ([1]; combination of Tipifarnib and Erlotinib (1 μM), cell lines not named, data not shown) was “complete cell death”, the “effect on cells growth” value ([2]; Tipifarnib alone at 0.1 μM) was “some cytostatic effect” and the cytostatic effect [2, 9] was “exacerbated”. The “effect on cells growth” value (HCC4006; [5]) was “some cytostatic effect”, the cytostatic effect (HCC4006; [9]) was “exacerbated” and the “elimination of drug tolerant cells” value (HCC4006; [6]) was “efficiently eliminated all drug tolerant cells”. For the same molecule, the “emergence of resistant clones” value (HCC4006; [6]) was “fully prevented the emergence of resistant clones”, the “elimination of drug tolerant cells” value (HCC4006; [7]) was “efficiently eliminated all drug tolerant cells” and the “emergence of resistant proliferative clones” value (HCC4006; [8]) was “fully prevented the emergence of resistant clones”. For the same molecule, the “effect on cells growth” value (HCC827; [5]) was “little-to-non effect”, the “elimination of drug tolerant cells” value (HCC827; [6]) was “efficiently eliminated all drug tolerant cells” and the “emergence of resistant clones” value (HCC827; [6]) was “fully prevented the emergence of resistant clones”. For the same molecule, the “elimination of drug tolerant cells” value (HCC827; [7]) was “efficiently eliminated all drug tolerant cells”, the “emergence of resistant proliferative clones” value (HCC827; [8]) was “fully prevented the emergence of resistant clones” and the tolerability in patients [3] was “well tolerated”. The “effect on cells growth” value ([4]; Tipifarnib alone at 0.1 μM) was “some cytostatic effect” and the cytostatic effect [4, 9] was “exacerbated”.

For `C#Cc1cccc(Nc2ncnc3cc(OCCOC)c(OCCOC)cc23)c1` [erlotinib], the “proliferative resistant clones after erlotinib treatment” value (PC9; [10]) was “able to generate proliferative resistant clones”, the “generation of DTC” value [1] was “able to generate DTC” and the “resistant clones after erlotinib treatment” value (HCC2935) was “never observed resistant clones”. For the same molecule, the “proliferative resistant clones after erlotinib treatment” value (HCC4006; [10]) was “able to generate proliferative resistant clones” and the “resistant clones after erlotinib treatment” value (H3255) was “never observed resistant clones”.

With `COC(=O)[C@H](CC(C)C)NC(=O)c1ccc(NC[C@@H](N)CS)cc1-c1cccc2ccccc12` [GGTI 298] the relapse (TKI-sensitive models) was “not GGTi prevent relapse”, the “emergence of resistant proliferative clones” value (PC9; [8]) was “didn't prevent the emergence of resistant proliferative clones” and the “emergence of resistant proliferative clones” value (HCC4006; [8]) was “didn't prevent the emergence of resistant proliferative clones”. For the same molecule, the “emergence of resistant proliferative clones” value (HCC827; [8]) was “didn't prevent the emergence of resistant proliferative clones”.
